Data: patent US10294212B2 (CURADEV PHARMA PRIVATE LTD., priority 2013, dated 2019)

Assay: Brain penetration in rats
Format: in vivo, Sprague-Dawley rats
Settings: rat, single i.v. 10 mg/kg
Experimental: ii. Brain penetration in rats: Early and accurate prediction of drug penetration of the blood brain barrier is vital for the development of drugs targeting the central nervous system. Accordingly, ability of the compounds of the invention to penetrate the blood brain barrier was tested according to the methods well established in the art (Giorgetti et al., (2010) JPET 333:748-757, 2010). Briefly, Sprague-Dawley rats (n=3 per time point studied) were administered a single intravenous dose of the test compounds 2 or 97 formulated in 40% PEG and 20% PG at 10 mg/kg. Three rats were used for each of the following time points post-dosing: 0.5 hr, 1.5 hr and 3.0 hrs. First, blood was collected during deep anesthesia in heparinized tubes, and then animals were sacrificed and their brains were harvested. The brains were then pulverized in liquid nitrogen and homogenized in fixed volumes of ice cold homogenization buffer (10% Acetonitrile, 0.1% formic acid in water). Plasma was separated from blood using standard procedures. Plasma and brain concentrations of test compounds 2 and 97 were determined by LC/MS/MS using an API 4000 or AP15500 Qtrap mass spectrometer. Brain/Plasma ratio of test compounds 2 and 97 were determined after normalizing brain weight and buffer volume.

SMILES | blood brain barrier penetration
Nc1oc2cnccc2c1Nc1ccc(F)c(Cl)c1 [Compound 2, N^3-(3-Chloro-4-fluoro-phenyl)-furo[2,3-c]pyridine-2,3-diamine] | capable of penetrating blood brain barrier
Nc1oc2c(-c3ccncc3)nccc2c1Nc1ccc(F)c(Cl)c1 [Compound 97, N^3-(3-Chloro-4-fluorophenyl)-7-(pyridin-4-yl)furo[2,3-c]pyridine-2,3-diamine] | capable of penetrating blood brain barrier
